Measurements: patent publication US11161856B2 (H. Lundbeck A/S, priority 2017, dated 2021)

Experiments:
Assay type in all cases: biochemical
[1] = biological target: T1, MAGL (Homo sapiens, UniProt Q99685); test: In vitro competitive activity-based protein profiling (FP-Rh or HT-01 probe, gel-based); design: IC50 MGLL PC3 (Human, μM) / IC50 MGLL PFC (Human, μM): scale not given here; details: for % Inh MGLL PC3 (Human, μM) / % Inh MGLL PFC (Human, μM): concentration not given (μM)
T1 construct: Proteomes (human prefrontal cortex or cell membrane fractions); from tissue
T1 sequence (Q99685 1-303): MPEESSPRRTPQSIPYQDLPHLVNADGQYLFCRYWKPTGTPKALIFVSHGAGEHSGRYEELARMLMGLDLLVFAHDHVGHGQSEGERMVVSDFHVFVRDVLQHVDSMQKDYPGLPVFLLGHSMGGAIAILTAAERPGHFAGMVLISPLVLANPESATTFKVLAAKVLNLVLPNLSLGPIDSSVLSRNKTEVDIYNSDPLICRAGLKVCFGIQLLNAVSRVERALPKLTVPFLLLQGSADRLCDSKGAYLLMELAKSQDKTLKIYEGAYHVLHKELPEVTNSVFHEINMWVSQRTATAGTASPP
Procedure: (§1) In Vitro Competitive Activity-Based Protein Profiling.
(§2) Proteomes (human prefrontal cortex or cell membrane fractions) (50 μL, 1.0 mg/mL total protein concentration) were preincubated with varying concentrations of inhibitors at 37° C. After 30 min, FP-Rh or HT-01 (1.0 μL, 50 μM in DMSO) was added and the mixture was incubated for another 30 min at room temperature. Reactions were quenched with SDS loading buffer (15 μL-4×) and run on SDS-PAGE.

[2] = biological target: T2, MGLL (Mus musculus, UniProt O35678); test: In vitro competitive activity-based protein profiling, mouse brain proteome (MGLL); details: concentration not given (μM)
T2 construct: Brain; from tissue; host or cells: mouse brain proteome
T2 sequence (O35678 1-303): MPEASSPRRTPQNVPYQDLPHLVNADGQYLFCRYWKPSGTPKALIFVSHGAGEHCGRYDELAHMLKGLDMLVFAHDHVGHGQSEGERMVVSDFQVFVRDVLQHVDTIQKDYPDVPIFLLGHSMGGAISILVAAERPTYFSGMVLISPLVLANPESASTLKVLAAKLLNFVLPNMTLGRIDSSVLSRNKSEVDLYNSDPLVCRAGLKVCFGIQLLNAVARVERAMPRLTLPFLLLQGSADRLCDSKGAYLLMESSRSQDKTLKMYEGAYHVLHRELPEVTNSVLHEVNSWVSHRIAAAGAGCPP

[3] = biological target: T3, ABHD6 (Mus musculus, UniProt Q8R2Y0); test: In vitro competitive activity-based protein profiling, mouse brain proteome (ABHD6); details: mouse brain proteome; concentration not given (μM)
T3 construct: Brain; from tissue; host or cells: mouse brain proteome
T3 sequence (Q8R2Y0 1-336): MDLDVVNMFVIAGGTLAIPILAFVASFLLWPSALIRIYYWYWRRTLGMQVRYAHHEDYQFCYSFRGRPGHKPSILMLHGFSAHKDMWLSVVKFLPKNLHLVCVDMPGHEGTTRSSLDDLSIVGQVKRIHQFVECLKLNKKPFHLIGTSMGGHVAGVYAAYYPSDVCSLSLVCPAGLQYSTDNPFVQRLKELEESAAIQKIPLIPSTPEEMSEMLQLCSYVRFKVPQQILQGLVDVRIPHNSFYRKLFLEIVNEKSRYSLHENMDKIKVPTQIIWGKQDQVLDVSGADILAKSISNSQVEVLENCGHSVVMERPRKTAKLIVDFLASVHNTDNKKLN
Procedure: [The source words this procedure for another target and reports this target under the same test.] as §1, §2

[4] = prefrontal cortex (PFC) proteome

Row | Structure (SMILES) | % Inh MGLL PC3 (Human, μM) ([1]; PC3 cell proteome) | % Inh MGLL Brain (Mouse, μM) [2] | % Inh ABHD6 Brain (Mouse, μM) [3] | % Inh MGLL PFC (Human, μM) [1, 4] | IC50 MGLL PC3 (Human, μM) ([1]; PC3 cell proteome) | IC50 MGLL PFC (Human, μM) [1, 4]
1 | O=C(O)CN1CCN(c2cc(CN3CCCC34CCN(C(=O)OC(C(F)(F)F)C(F)(F)F)CC4)cc(C(F)(F)F)c2)CC1 [Example 2, 2-(4-(3-((8-(((1,1,1,3,3,3-Hexafluoropropan-2-yl)oxy)carbonyl)-1,8-diazaspiro[4.5]decan-1-yl)methyl)-5-(trifluoromethyl)phenyl)piperazin-1-yl)acetic acid] | ### (### is ≥75%) | ### (### is ≥75%) | # (# is ≤25%) |  |  | 
2 | CN(Cc1ccc(F)cc1C1(C(=O)O)CCCC1)C1(C)CCN(C(=O)OC(C(F)(F)F)C(F)(F)F)CC1 [Example 143, 1-(5-Fluoro-2-{[(1-{[(1,1,1,3,3,3-hexafluoropropan-2-yl)oxy]carbonyl}-4-methylpiperidin-4-yl)(methyl)amino]methyl}phenyl)cyclopentane-1-carboxylic acid] | ### (### is ≥75%) | ### (### is ≥75%) | # (# is ≤25%) |  |  | 
3 | O=C(O)C1CCN(c2cc(CN3CC4(CCN(C(=O)OC(C(F)(F)F)C(F)(F)F)CC4)C3)cc(C(F)(F)F)c2)CC1 [Example 99, 1-(3-((7-(((1,1,1,3,3,3-Hexafluoropropan-2-yl)oxy)carbonyl)-2,7-diazaspiro[3.5]nonan-2-yl)methyl)-5-(trifluoromethyl)phenyl)piperi-dine-4-carboxylic acid] |  | ### (### is ≥75%) | ### (### is ≥75%) | ### (### is ≥75%) |  | 
4 | CC1(C(=O)O)CCN(c2cc(CN3CC4(CCN(C(=O)OC(C(F)(F)F)C(F)(F)F)CC4)C3)cc(C(F)(F)F)c2)C1 (stereo not drawn) [Example 121, l-(3-((7-(((1,1,1,3,3,3-Hexafluoropropan-2-yl)oxy)carbonyl)-2,7-diazaspiro[3.5]nonan-2-yl)methyl)-5-(trifluoromethyl)phenyl)-3-methylpyrrolidine-3-carboxylic acid] |  | ### (### is ≥75%) | ### (### is ≥75%) | ### (### is ≥75%) |  | 
5 | O=C(O)[C@H]1CCCN(c2cc(CN3CC4(CCN(C(=O)OC(C(F)(F)F)C(F)(F)F)CC4)C3)cc(C(F)(F)F)c2)C1 [Example 106, (S)-1-(3-((7-(((1,1,1,3,3,3-Hexafluoropropan-2-yl)oxy)carbonyl)-2,7-diazaspiro[3,5]nonan-2-yl)methyl)-5-(trifluoromelhyl)phenyl) piperidine-3-carboxylic acid] |  | ### (### is ≥75%) | ### (### is ≥75%) | ### (### is ≥75%) |  | 
6 | CN(Cc1ccc(C(F)(F)F)cc1N1CCC(C(=O)O)C1)C1(C)CCN(C(=O)OC(C(F)(F)F)C(F)(F)F)CC1 (stereo not drawn) [Example 118, l-(2-(((1-(((1,1,1,3,3,3-Hexailuoropropan-2-yl)oxy)carbonyl)-4-methylpiperidin-4-yl)(methyl)amino)methyl)-5-(trifluoromethyl)phenyl)pyrrolidine-3-carboxylic acid] |  |  | ## (## is between 25 and 75%) | ### (### is ≥75%) |  | 
7 | O=C(O)CN1CC2CC1CN2c1cc(C(F)(F)F)ccc1CN1CCCC12CCN(C(=O)OC(C(F)(F)F)C(F)(F)F)CC2 (centres unmarked) [Example 6] |  |  |  |  | * * * | * * *
8 | O=C(OC(C(F)(F)F)C(F)(F)F)N1CCC2(CC1)CN(Cc1cccc(N3CCOCC3)c1)C2 [Example 90, 1,1,1,3,3,3-Hexafluoropropan-2-yl 2-(3-morpholinobenzyl)-2,7-diazaspiro[3,5]nonane-7-carboxylate] |  | ### (### is ≥75%) | ### (### is ≥75%) |  |  | 
9 | O=C(OC(C(F)(F)F)C(F)(F)F)N1CCC2(CC1)CN(Cc1c(Cl)cccc1N1CCCCC1)C2 [Example 45, 1,1,1,3,3,3-Hexafluoropropan-2-yl 2-(2-chloro-6-(piperidin-1-yl)benzyl)-2,7-diazaspiro[3,5]nonane-7-carboxylate] |  | ### (### is ≥75%) | ### (### is ≥75%) |  |  | 
10 | O=C(OC(C(F)(F)F)C(F)(F)F)N1CCC2(CC1)CN(Cc1ccc(C(F)(F)F)cc1N1CCOCC1)C2 [Example 36, 1,1,1,3,3,3-Hexafluoropropan-2-yl 2-(2-morpholino-4-(trifluoromethyl)benzyl)-2,7-diazaspiro[3.5]nonane-7-carboxylate] |  | ### (### is ≥75%) | ### (### is ≥75%) |  |  | 
11 | O=C(OC(C(F)(F)F)C(F)(F)F)N1CCC2(CC1)CN(Cc1ccc(Cl)c(Cl)c1)C2 [Example 67, 1,1,1,3,3,3-Hexafluoropropan-2-yl 2-(3,4-dichlorobenzyl)-2,7-diazaspiro[3,5]nonane-7-carboxylate] |  | ### (### is ≥75%) | ### (### is ≥75%) |  |  | 
12 | CCN1CCN(c2cccc(C(F)(F)F)c2CN2CC3(CCN(C(=O)OC(C(F)(F)F)C(F)(F)F)CC3)C2)CC1 [Example 54, 1,1,1,3,3,3-Hexafluoropropan-2-yl 2-(2-(4-ethylpiperazin-1-yl)-6-(trifluoromethyl)benzyl)-2,7-diazaspiro[3.5]nonane-7-carboxylate] |  | ### (### is ≥75%) | # (# is ≤25%) |  |  | 
13 | CC(=O)N1CCC2(CC1)CN(c1cc(Cl)ccc1CN1CCN(C(=O)OC(C(F)(F)F)C(F)(F)F)CC1)C2 [Example 198, 1.1.1,3,3,3-Hexafluoropropan-2-yl 4-(2-(7-acetyl-2,7-diazaspiro[3.5]nonan-2-yl)-4-chlorobenzyl)piperazine-1-carboxylate] |  | ### (### is ≥75%) | # (# is ≤25%) |  |  | 
14 | COc1ccc(CN2CC3(CCN(C(=O)OC(C(F)(F)F)C(F)(F)F)CC3)C2)cc1 [Example 85, 1,1,1,3,3,3-Hexafluoropropan-2-yl 2-(4-methoxybenzyl)-2,7-diazaspiro[3.5]nonane-7-carboxylate] |  | ### (### is ≥75%) | ### (### is ≥75%) |  |  | 
15 | O=C(OC(C(F)(F)F)C(F)(F)F)N1CCC2(CC1)CN(Cc1cccc(Oc3ccccc3)c1)C2 [Example 78, 1,1,1,3,3,3-Hexafluoropropan-2-yl 2-(3-phenoxybenzyl)-2,7-diazaspiro[3.5]nonane-7-carboxylate] |  | ### (### is ≥75%) | ### (### is ≥75%) |  |  | 
16 | O=C(OC(C(F)(F)F)C(F)(F)F)N1CCC2(CC1)CN(Cc1c(N3CCN(C4CC4)CC3)cccc1C(F)(F)F)C2 [Example 60, 1,1,1,3,3,3-Hexafluoropropan-2-yl 2-(2-(4-cyclopropylpiperazin-1-yl)-6-(trifluoromethyl)benzyl)-2,7-diazaspiro[3.5]nonane-7-carboxylate] |  | ### (### is ≥75%) | ### (### is ≥75%) |  |  | 
17 | CS(=O)(=O)N1CCC2(CCN(c3ccccc3CN3CCN(C(=O)OC(C(F)(F)F)C(F)(F)F)CC3)C2)C1 (centres unmarked) [Example 165, 1,1,1,3,3,3-Hexafluoropropan-2-yl 4-(2-(7-(methylsulfonyl)-2,7-diazaspiro[4.4]nonan-2-yl)benzyl)piperazine-1-carboxylate] |  | ### (### is ≥75%) | # (# is ≤25%) |  |  | 
18 | CCN1CCC2(CC1)CCN(c1cc(Cl)cc(CN3CCCC34CN(C(=O)OC(C(F)(F)F)C(F)(F)F)C4)c1)C2 [Example 239, 1,1,1,3,3,3-Hexafluoropropan-2-yl 5-(3-chloro-5-(8-ethyl-2,8-diazaspiro[4.5]decan-2-yl)benzyl)-2,5-diazaspiro[3,4]octane-2-carboxylate] |  | ## (## is between 25 and 75%) | ## (## is between 25 and 75%) |  |  | 
